Measurements published in US9586969B2, “Microbiocidal heterobicyclic derivatives” (Syngenta Participations AG, priority 2014, dated 2017).
Where two headings read alike, the source gives them in different places.

Legend:
Type in all cases: cell-based
[1] = system: Glomerella lagenarium (Colletotrichum lagenarium); test: Glomerella lagenarium (Colletotrichum lagenarium) / liquid culture (Anthracnose); conditions: Colletotrichum orbiculare, read-out: disease control
[2] = system: Botryotinia fuckeliana (Botrytis cinerea); test: Botryotinia fuckeliana (Botrytis cinerea) / liquid culture (Gray mould); conditions: 72 h, read-out: disease control
[3] = system: Monographella nivalis (Microdochium nivale); test: Monographella nivalis (Microdochium nivale) / liquid culture (Foot rot cereals); conditions: 96 h, read-out: disease control
Fusarium culmorum = test: microbe, parasite or virus in culture; conditions: 72 h, read-out: disease control
[4] = 200 ppm, liquid culture, 24° C., inhibition of growth measured photometrically 3-4 days after application, vs untreated control
[5] = 200 ppm, liquid culture, 24° C., inhibition of growth determined photometrically 3-4 days after application, vs untreated control
[6] = 200 ppm, liquid culture, 24° C., inhibition of growth determined photometrically 4-5 days after application, vs untreated control

Cc1cccc2c1CC(C)(C)N=C2c1cnn2cccc2c1 [E 4]
inhibition of growth at 200 ppm [1, 4]: ≥ 80%
inhibition of growth at 200 ppm [2, 5]: ≥ 80%
inhibition of growth at 200 ppm [3, 6]: ≥ 80%

CC1(C)Cc2c(Cl)cccc2C(c2cnn3cccc3c2)=N1 [E 6]
inhibition of growth at 200 ppm [1, 4]: ≥ 80%
inhibition of growth at 200 ppm [2, 5]: ≥ 80%
inhibition of growth at 200 ppm [3, 6]: ≥ 80%
inhibition of growth at 200 ppm (Fusarium culmorum): ≥ 80%

CC1(C)Cc2c(F)cccc2C(c2cnn3c(F)ccc3c2)=N1 [E 7, 5-fluoro-1-(7-fluoro-pyrrolo[1,2-b]pyridazin-3-yl)-3,3-dimethyl-3,4-dihydro-isoquinoline]
inhibition of growth at 200 ppm [1, 4]: ≥ 80%
inhibition of growth at 200 ppm [2, 5]: ≥ 80%
inhibition of growth at 200 ppm [3, 6]: ≥ 80%
inhibition of growth at 200 ppm (Fusarium culmorum): ≥ 80%

CC1(C)Cc2ccccc2C(c2cnn3c(F)ccc3c2)=N1 [E 8]
inhibition of growth at 200 ppm [1, 4]: ≥ 80%
inhibition of growth at 200 ppm [2, 5]: ≥ 80%
inhibition of growth at 200 ppm [3, 6]: ≥ 80%

CC1(C)Cc2c(Br)cccc2C(c2cnn3c(F)ccc3c2)=N1 [E 9]
inhibition of growth at 200 ppm [1, 4]: ≥ 80%
inhibition of growth at 200 ppm [2, 5]: ≥ 80%
inhibition of growth at 200 ppm [3, 6]: ≥ 80%
inhibition of growth at 200 ppm (Fusarium culmorum): ≥ 80%

CC1(C)Cc2ccccc2C(c2cnn3cccc3c2)=N1 [E 10, 3,3-dimethyl-1-pyrrolo[1,2-b]pyridazin-3-yl-4H-isoquinoline]
inhibition of growth at 200 ppm [1, 4]: ≥ 80%
inhibition of growth at 200 ppm [2, 5]: ≥ 80%
inhibition of growth at 200 ppm [3, 6]: ≥ 80%

CC1(C)Cc2c(F)cccc2C(c2cnn3c(F)cc(F)c3c2)=N1 [E 11]
inhibition of growth at 200 ppm [1, 4]: ≥ 80%
inhibition of growth at 200 ppm [2, 5]: ≥ 80%

CC1(C)N=C(c2cnn3c(Cl)ccc3c2)c2cccc(F)c2C1(C)C [E 13]
inhibition of growth at 200 ppm [1]: ≥ 80%
inhibition of growth at 200 ppm [2]: ≥ 80%
inhibition of growth at 200 ppm [3]: ≥ 80%

CC1(C)N=C(c2cnn3ccc(Cl)c3c2)c2cccc(F)c2C1(C)C [E 16]
inhibition of growth at 200 ppm [1, 4]: ≥ 80%
inhibition of growth at 200 ppm [2, 5]: ≥ 80%

CC1(C)Cc2ccccc2C(c2cnn3cccc3c2)N1 (stereo not drawn) [E 20]
inhibition of growth at 200 ppm [2, 5]: ≥ 80%

CC1(C)Cc2c(C#N)cccc2C(c2cnn3c(F)ccc3c2)=N1 [E 22]
inhibition of growth at 200 ppm [1, 4]: ≥ 80%
inhibition of growth at 200 ppm [2, 5]: ≥ 80%
inhibition of growth at 200 ppm [3, 6]: ≥ 80%
inhibition of growth at 200 ppm (Fusarium culmorum): ≥ 80%

COc1cccc2c1CC(C)(C)N=C2c1cnn2c(F)ccc2c1 [E 23]
inhibition of growth at 200 ppm [1, 4]: ≥ 80%
inhibition of growth at 200 ppm [2, 5]: ≥ 80%

CC1(C)N=C(c2cnn3c(F)cc(C#N)c3c2)c2cccc(F)c2C1(C)C [E 25]
inhibition of growth at 200 ppm [1, 4]: ≥ 80%
inhibition of growth at 200 ppm [2, 5]: ≥ 80%
inhibition of growth at 200 ppm [3, 6]: ≥ 80%

Cc1ccc2cc(C3=NC(C)(C)Cc4c(F)cccc43)cnn12 [E 26]
inhibition of growth at 200 ppm [1, 4]: ≥ 80%
inhibition of growth at 200 ppm [2, 5]: ≥ 80%
inhibition of growth at 200 ppm [3, 6]: ≥ 80%
inhibition of growth at 200 ppm (Fusarium culmorum): ≥ 80%

CC1(C)Cc2c(cccc2-c2ccccc2F)C(c2cnn3c(F)ccc3c2)=N1 [E 28]
inhibition of growth at 200 ppm [1, 4]: ≥ 80%
inhibition of growth at 200 ppm [2, 5]: ≥ 80%

CC1(C)Cc2c(cccc2C(F)F)C(c2cnn3cccc3c2)=N1 [E 32]
inhibition of growth at 200 ppm [1, 4]: ≥ 80%
inhibition of growth at 200 ppm [2, 5]: ≥ 80%
inhibition of growth at 200 ppm [3, 6]: ≥ 80%
inhibition of growth at 200 ppm (Fusarium culmorum): ≥ 80%

CC1(C)Cc2c(O)cccc2C(c2cnn3cccc3c2)=N1 [E 34]
inhibition of growth at 200 ppm [1, 4]: ≥ 80%
inhibition of growth at 200 ppm [2, 5]: ≥ 80%

CC1(C)N=C(c2cnn3c(F)cc(C(F)(F)F)c3c2)c2cccc(F)c2C1(C)C [E 35]
inhibition of growth at 200 ppm [1, 4]: ≥ 80%
inhibition of growth at 200 ppm [2, 5]: ≥ 80%

CC1(C)N=C(c2cnn3c(C(F)(F)F)cc(C(F)(F)F)c3c2)c2cccc(F)c2C1(C)C [E 36]
inhibition of growth at 200 ppm [2, 5]: ≥ 80%

CC1(C)N=C(c2cnn3c(I)ccc3c2)c2cccc(F)c2C1(C)C [E 37]
inhibition of growth at 200 ppm [1, 4]: ≥ 80%
inhibition of growth at 200 ppm [2, 5]: ≥ 80%
inhibition of growth at 200 ppm [3, 6]: ≥ 80%

CC1(C)Cc2c(OC(F)F)cccc2C(c2cnn3cccc3c2)=N1 [E 39]
inhibition of growth at 200 ppm [2, 5]: ≥ 80%

C#Cc1cc(F)n2ncc(C3=NC(C)(C)C(C)(C)c4c(F)cccc43)cc12 [E 40]
inhibition of growth at 200 ppm [1, 4]: ≥ 80%
inhibition of growth at 200 ppm [2, 5]: ≥ 80%

CC1(C)N=C(c2cnn3c(C(F)(F)F)ccc3c2)c2cccc(F)c2C1(C)C [E 43]
inhibition of growth at 200 ppm [1, 4]: ≥ 80%
inhibition of growth at 200 ppm [2, 5]: ≥ 80%
inhibition of growth at 200 ppm [3, 6]: ≥ 80%

CC1(C)N=C(c2cnn3c(Br)cc(Br)c3c2)c2cccc(F)c2C1(C)C [E 44]
inhibition of growth at 200 ppm [2, 5]: ≥ 80%

CC1(C)N=C(c2cnn3cccc3c2)c2cccc(F)c2C1(C)C [E 45]
inhibition of growth at 200 ppm (Fusarium culmorum): ≥ 80%

CC1(C)N=C(c2cnn3c(C#N)ccc3c2)c2cccc(F)c2C1(C)C [E 52]
inhibition of growth at 200 ppm [1, 4]: ≥ 80%
inhibition of growth at 200 ppm [2, 5]: ≥ 80%
inhibition of growth at 200 ppm [3, 6]: ≥ 80%
inhibition of growth at 200 ppm (Fusarium culmorum): ≥ 80%

Cc1ccc2cc(C3=NC(C)(C)C(C)(C)c4c(F)cccc43)cnn12 [E 53]
inhibition of growth at 200 ppm [1, 4]: ≥ 80%
inhibition of growth at 200 ppm [2, 5]: ≥ 80%
inhibition of growth at 200 ppm [3, 6]: ≥ 80%
inhibition of growth at 200 ppm (Fusarium culmorum): ≥ 80%

CO/N=C(\C)c1cccc2c1CC(C)(C)N=C2c1cnn2cccc2c1 [E 56]
inhibition of growth at 200 ppm [1, 4]: ≥ 80%
inhibition of growth at 200 ppm [2, 5]: ≥ 80%

CO/N=C(/C)c1cccc2c1CC(C)(C)N=C2c1cnn2cccc2c1 [E 57]
inhibition of growth at 200 ppm [1, 4]: ≥ 80%
inhibition of growth at 200 ppm [2, 5]: ≥ 80%

CC1(C)Cc2c(C#N)cccc2C(c2cnn3cccc3c2)=N1 [E 58]
inhibition of growth at 200 ppm [1, 4]: ≥ 80%
inhibition of growth at 200 ppm [2, 5]: ≥ 80%
inhibition of growth at 200 ppm (Fusarium culmorum): ≥ 80%

CC1(C)Cc2c(cccc2C2CC2)C(c2cnn3cccc3c2)=N1 [E 59]
inhibition of growth at 200 ppm [2, 5]: ≥ 80%

CC1(C)N=C(c2cnn3cccc3c2)c2ccccc2C1(C)C [E 61]
inhibition of growth at 200 ppm [1, 4]: ≥ 80%
inhibition of growth at 200 ppm [2, 5]: ≥ 80%
inhibition of growth at 200 ppm (Fusarium culmorum): ≥ 80%

C#Cc1ccc2cc(C3=NC(C)(C)C(C)(C)c4c(F)cccc43)cnn12 [E 62]
inhibition of growth at 200 ppm [1, 4]: ≥ 80%
inhibition of growth at 200 ppm [2, 5]: ≥ 80%
inhibition of growth at 200 ppm [3, 6]: ≥ 80%

CC1(C)Cc2ccccc2C(c2cnn3c(Br)ccc3c2)=N1 [E 65]
inhibition of growth at 200 ppm [2, 5]: ≥ 80%
inhibition of growth at 200 ppm [3, 6]: ≥ 80%

CC1(C)N=C(c2cnn3ccc(Br)c3c2)c2ccccc2C1=O [E 67]
inhibition of growth at 200 ppm [1, 4]: ≥ 80%
inhibition of growth at 200 ppm [3, 6]: ≥ 80%

CC1(C)N=C(c2cnn3cccc3c2)c2cccc(C#N)c2C1(C)C [E 68]
inhibition of growth at 200 ppm [1, 4]: ≥ 80%
inhibition of growth at 200 ppm [2, 5]: ≥ 80%

CC1(C)N=C(c2cnn3c(Cl)cc(Cl)c3c2)c2cccc(F)c2C1(C)C [E 69]
inhibition of growth at 200 ppm [1, 4]: ≥ 80%
inhibition of growth at 200 ppm [2, 5]: ≥ 80%
inhibition of growth at 200 ppm [3, 6]: ≥ 80%

CC1(C)N=C(c2cnn3ccc(Br)c3c2)c2ccccc2C1(F)F [E 70]
inhibition of growth at 200 ppm [1, 4]: ≥ 80%
inhibition of growth at 200 ppm [2, 5]: ≥ 80%
inhibition of growth at 200 ppm [3, 6]: ≥ 80%

CC1(C)N=C(c2cnn3cccc3c2)c2ccccc2C1(F)F [E 71]
inhibition of growth at 200 ppm [1, 4]: ≥ 80%
inhibition of growth at 200 ppm [2, 5]: ≥ 80%
inhibition of growth at 200 ppm [3, 6]: ≥ 80%
inhibition of growth at 200 ppm (Fusarium culmorum): ≥ 80%

CC1(C)N=C(c2cnn3cccc3c2)c2ccc(F)cc2C1(C)C [E 72]
inhibition of growth at 200 ppm [1, 4]: ≥ 80%
inhibition of growth at 200 ppm [2, 5]: ≥ 80%
inhibition of growth at 200 ppm [3, 6]: ≥ 80%
inhibition of growth at 200 ppm (Fusarium culmorum): ≥ 80%

CC1(C)N=C(c2cnn3cccc3c2)c2ccc(F)c(F)c2C1(C)C [E 73]
inhibition of growth at 200 ppm [1, 4]: ≥ 80%
inhibition of growth at 200 ppm [2, 5]: ≥ 80%
inhibition of growth at 200 ppm [3, 6]: ≥ 80%
inhibition of growth at 200 ppm (Fusarium culmorum): ≥ 80%

CC1(C)N=C(c2cnn3cc(F)cc3c2)c2cccc(F)c2C1(C)C [E 74]
inhibition of growth at 200 ppm [1, 4]: ≥ 80%
inhibition of growth at 200 ppm [2, 5]: ≥ 80%
inhibition of growth at 200 ppm [3, 6]: ≥ 80%
inhibition of growth at 200 ppm (Fusarium culmorum): ≥ 80%

Cc1nn2cccc2cc1C1=NC(C)(C)C(C)(C)c2cc(F)ccc21 [E 78]
inhibition of growth at 200 ppm [1, 4]: ≥ 80%
inhibition of growth at 200 ppm [2, 5]: ≥ 80%
inhibition of growth at 200 ppm (Fusarium culmorum): ≥ 80%

Cc1c(C2=NC(C)(C)C(C)(C)c3cc(F)ccc32)cnn2cccc12 [E 79]
inhibition of growth at 200 ppm [1, 4]: ≥ 80%
inhibition of growth at 200 ppm [2, 5]: ≥ 80%
inhibition of growth at 200 ppm (Fusarium culmorum): ≥ 80%

Cc1c(C2=NC(C)(C)C(C)(C)c3c2ccc(F)c3F)cnn2cccc12 [E 81]
inhibition of growth at 200 ppm [1, 4]: ≥ 80%
inhibition of growth at 200 ppm [2, 5]: ≥ 80%
inhibition of growth at 200 ppm (Fusarium culmorum): ≥ 80%

Cc1c(C2=NC(C)(C)C(C)(C)c3c(F)cccc32)cnn2c(Br)ccc12 [E 82]
inhibition of growth at 200 ppm [1, 4]: ≥ 80%
inhibition of growth at 200 ppm [2, 5]: ≥ 80%
inhibition of growth at 200 ppm [3, 6]: ≥ 80%

Cc1c(C2=NC(C)(C)C(C)(C)c3c(F)cccc32)cnn2c(C#N)ccc12 [E 83]
inhibition of growth at 200 ppm [1, 4]: ≥ 80%
inhibition of growth at 200 ppm [2, 5]: ≥ 80%

CC1(C)N=C(c2cnn3ccnc3c2)c2cccc(F)c2C1(C)C [E 85]
inhibition of growth at 200 ppm [1, 4]: ≥ 80%
inhibition of growth at 200 ppm [2, 5]: ≥ 80%
inhibition of growth at 200 ppm [3, 6]: ≥ 80%

CC1(C)Cc2c(F)cccc2C(c2cnn3ccnc3c2)=N1 [E 86]
inhibition of growth at 200 ppm [2, 5]: ≥ 80%

CC1(C)N=C(c2cnn3c(C#N)cnc3c2)c2cccc(F)c2C1(F)F [E 88]
inhibition of growth at 200 ppm [2, 5]: ≥ 80%

CC1(C)N=C(c2cnn3ccnc3c2)c2cccc(F)c2C1(F)F [E 89]
inhibition of growth at 200 ppm [1, 4]: ≥ 80%
inhibition of growth at 200 ppm [2, 5]: ≥ 80%

CC1(C)N=C(c2cnn3c(Br)cnc3c2)c2cccc(F)c2C1(F)F [E 91]
inhibition of growth at 200 ppm [2, 5]: ≥ 80%

Cc1nn2cccc2cc1C1=NC(C)(C)C(C)(C)c2c(F)cccc21 [E 92]
inhibition of growth at 200 ppm [1, 4]: ≥ 80%
inhibition of growth at 200 ppm [2, 5]: ≥ 80%

Cc1c(C2=NC(C)(C)C(C)(C)c3c(F)cccc32)cnn2cccc12 [E 93]
inhibition of growth at 200 ppm [1, 4]: ≥ 80%
inhibition of growth at 200 ppm [2, 5]: ≥ 80%

CC1(C)N=C(c2cnn3cccc3c2)c2ccc(Cl)c(F)c2C1(C)C [E 94]
inhibition of growth at 200 ppm [1, 4]: ≥ 80%
inhibition of growth at 200 ppm [2, 5]: ≥ 80%

Cc1c(C2=NC(C)(C)C(C)(C)c3c(F)cccc32)cnn2c(F)ccc12 [E 95]
inhibition of growth at 200 ppm [1, 4]: ≥ 80%
inhibition of growth at 200 ppm [2, 5]: ≥ 80%
